From PubChem BioAssay AID1845212 (Molecular Pharmacology Branch, DTP, NCI, 2023)
pIC50: −log10 of the molar value. Values joined by “and” are separate entries in the source; they are usually repeats but may differ in a detail not shown here. Equal values may be shown once. Active and inactive are the calls of the source. Rule for the calls: active = viability on the fitted dose curve at most 10% of control; inactive = the rest.

Tested on: NCI-H719 tumor spheroids, viability
Assay: Anticancer human tumor NCI-H719 cell line growth inhibition;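 for pIC50: spheroids exposed to compounds for seven days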;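 for viability, T/C: spheroids exposed to compounds for seven days; percent viability relative to DMSO vehicle control as 100%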
Settings: spheroids with HUVEC and MSC; for viability, T/C: stronger effect = lower value
Text: Multicellular complex tumor spheroid response to DNA repair inhibitors in combination with DNA-damaging drugs
This study explores the anticancer activities of DNA-damaging drugs and inhibitors of DNA damage repair, both as single agents and in combinations. Complex tumor spheroids comprised of malignant cells, endothelial cells and mesenchymal stem cells served as an in vitro model for human solid tumors. This model system incorporates physiologically relevant features and patient-derived or established malignant cell lines with clinically relevant genetic alterations from many tumor types. Twenty-six patient-derived or established malignant cell lines were evaluated representing sarcoma, melanoma, small cell lung cancer (SCLC), non-small cell lung cancer (NSCLC), as well as bladder, ovarian and pancreatic cancers. The concentration ranges selected for each drug and investigational agent were based upon clinically achievable concentrations if the clinical Cmax of the agent was known.
Compounds. The drugs and compounds olaparib (NSC753686), talazoparib (NSC767125), berzosertib (NSC777718), elimusertib (NSC800525), nedisertib (NSC802822), VX-984 (NSC792969), AZD-1390 (NSC803789), temozolomide (NSC362856), topotecan (NSC609699), trabectedin (NSC813783), staurosporine (NSC755774), and gemcitabine (NSC613327) were obtained from the National Cancer Institute (NCI) Developmental Therapeutics Program Chemical Repository. The FDA-approved anticancer drug set is available from the Developmental Therapeutics Program at https://dtp.cancer.gov/organization/dscb/obtaining/available_plates.htm. […] The stock solutions were prepared in dimethyl sulfoxide (DMSO, Sigma-Aldrich, St. Louis, MO, cat. D2650) at 400-fold the tested concentration and stored at -70 degrees C. Prior to their use, the stock solutions were diluted in fresh medium and the final DMSO concentration in the assay was 0.25% (v/v). All drugs and investigational agents were tested over a range starting from a high concentration at or near the clinical Cmax and decreasing in half-log increments. If the clinical Cmax for an agent had not been determined, the highest concentration tested was 10 microM.
Cell Lines. The patient-derived cancer cell (PDC) lines: 156681-154-R-J1-PDC, 283228-195-R-J1-PDC, 287954-098-R-J1-PDC, 292921-168-R-J2-PDC, 349418-098-R-PDC, 425362-245-T-J1-PDC, 556581-035-R-J1-PDC, and BL0293-F563-PDC were received from the NCI Patient-Derived Models Repository (PDMR, https://pdmr.cancer.gov). The established cell lines HS-SY-2 (RRID:CVCL_8719), MPNST, and SYO-1 (RRID:CVCL_7146) were obtained from the Sloan Kettering Institute. The alveolar soft parts sarcoma cell line ASPS-1 (RRID:CVCL_S738) was established at the NCI and grown from internal seed stocks. The following established cell lines were purchased from the American Type Culture Collection (ATCC, Manassas, VA): G-401 (ATCC, cat. CRL-1441, RRID:CVCL_0270), SW982 (ATCC, cat. HTB-93, RRID:CVCL_1734), VA-ES-BJ (ATCC, cat. CRL-2138, RRID:CVCL_1785), NCI-H719 (ATCC, cat. CRL-5837, RRID:CVCL_1582), NCI-H196 (ATCC, cat. CRL-5823, RRID:CVCL_1509), NCI-H841 (ATCC, cat. CRL-5845, RRID:CVCL_1595), NCI-H1618 (ATCC, cat. CRL-5879, RRID:CVCL_1480), NCI-H1876 (ATCC, cat. CRL-5902, RRID:CVCL_1503), DMS 114 (ATCC, cat. CRL-2066; RRID:CVCL_1174), NCI-H211 (ATCC, cat. CRL-5824; RRID:CVCL_1529), and SW 1271 (ATCC, cat. CRL-2177, RRID:CVCL_1716). The small cell lung cancer cell line COR-L88 was purchased from Sigma-Aldrich (cat. 92031917-1VL, RRID:CVCL_1141). The non-small cell lung cancer cell lines NCI-H226 (RRID:CVCL_1544) and NCI-H322M (RRID:CVCL_1557) were established at the NCI and grown from internal seed stocks. Pooled donor human umbilical vein endothelial cells (HUVEC, Lonza, cat. CC-2519) and human mesenchymal stem cells (hMSC, Lonza, cat. PT-2501) were purchased from Lonza (Walkersville, MD).
Cell Culture. All cells were maintained in an incubator at 37 degrees C and 5% CO2 with 95% humidity. […]

[2H]c1nc(C)nc([2H])c1-c1cc(NC[C@@H](C)c2cccc3c(C(=O)NC)ccnc23)ncn1
viability, T/C (compound 0.0316 µM): 94% and 100% and 109% | viability, T/C (compound 0.1 µM): 99.8% and 100% and 112% | viability, T/C (compound 0.316 µM): 91.7% and 123% | outcome (compound 0.316 µM): inactive | viability, T/C (compound 1 µM): 88.7% and 104% and 94.6% | viability, T/C (compound 3.16 µM): 71.9% and 105% and 111% | viability, T/C (compound 10 µM): 99.7% and 92.6% and 95.8% | pIC50 (curve of compound): < 5.00

CNCc1ccc(-c2cc(-c3nc(-c4ccc(S(=O)(=O)C(C)C)cc4)cnc3N)on2)cc1 + CC[C@@]1(O)C(=O)OCc2c1cc1n(c2=O)Cc2cc3c(CN(C)C)c(O)ccc3nc2-1
pIC50 (curve of first compound, second compound 0.003 µM): 7.95 | pIC50 (curve of first compound, second compound 0.00949 µM): > 8.02 | pIC50 (curve of first compound, second compound 0.03 µM): > 8.02 | pIC50 (curve of first compound, second compound 0.0949 µM): > 8.02 | pIC50 (curve of first compound, second compound 0.3 µM): > 8.02 | viability, T/C (second compound 0.003 µM, first compound 0.00949 µM): 51% | viability, T/C (second compound 0.003 µM, first compound 0.03 µM): 42.9% | viability, T/C (second compound 0.003 µM, first compound 0.0949 µM): 15.8% | viability, T/C (second compound 0.003 µM, first compound 0.3 µM): 7.57% | viability, T/C (second compound 0.003 µM, first compound 0.949 µM): 6.32% | viability, T/C (second compound 0.003 µM, first compound 3 µM): 0.12% | viability, T/C (second compound 0.00949 µM, first compound 0.00949 µM): 12.4% | viability, T/C (second compound 0.00949 µM, first compound 0.03 µM): 6.06% | viability, T/C (second compound 0.00949 µM, first compound 0.0949 µM): 6.36% | viability, T/C (second compound 0.00949 µM, first compound 0.3 µM): 7.36% | viability, T/C (second compound 0.00949 µM, first compound 0.949 µM): 7.1% | viability, T/C (second compound 0.00949 µM, first compound 3 µM): 0.13% | viability, T/C (second compound 0.03 µM, first compound 0.00949 µM): 5.87% | viability, T/C (second compound 0.03 µM, first compound 0.03 µM): 9.07% | viability, T/C (second compound 0.03 µM, first compound 0.0949 µM): 6.09% | viability, T/C (second compound 0.03 µM, first compound 0.3 µM): 8.62% | viability, T/C (second compound 0.03 µM, first compound 0.949 µM): 7.57% | viability, T/C (second compound 0.03 µM, first compound 3 µM): 0.1% | viability, T/C (second compound 0.0949 µM, first compound 0.00949 µM): 5.51% | viability, T/C (second compound 0.0949 µM, first compound 0.03 µM): 6.14% | viability, T/C (second compound 0.0949 µM, first compound 0.0949 µM): 7.1% | viability, T/C (second compound 0.0949 µM, first compound 0.3 µM): 8.34% | viability, T/C (second compound 0.0949 µM, first compound 0.949 µM): 8.45% | viability, T/C (second compound 0.0949 µM, first compound 3 µM): 0.11% | viability, T/C (second compound 0.3 µM, first compound 0.00949 µM): 6.1% | viability, T/C (second compound 0.3 µM, first compound 0.03 µM): 6.24% | viability, T/C (second compound 0.3 µM, first compound 0.0949 µM): 7.61% | viability, T/C (second compound 0.3 µM, first compound 0.3 µM): 8.16% | viability, T/C (second compound 0.3 µM, first compound 0.949 µM): 6.89% | viability, T/C (second compound 0.3 µM, first compound 3 µM): 0.15%

CC(C)n1c(=O)n(C)c2cnc3cc(F)c(-c4ccc(OCCCN5CCCCC5)nc4)cc3c21
viability, T/C (compound 0.0316 µM): 82.1% and 106% and 81.7% | viability, T/C (compound 0.1 µM): 93.8% and 98.1% and 94.4% | viability, T/C (compound 0.316 µM): 116% and 107% and 117% | viability, T/C (compound 1 µM): 81.4% and 94.8% and 103% | viability, T/C (compound 3.16 µM): 85.7% and 142% and 110% | viability, T/C (compound 10 µM): 108% and 104% and 123% | pIC50 (curve of compound): < 5.00
